Assay results: ChEMBL document CHEMBL4831515 (J Med Chem, 2021)
≈ marks a conversion by molar mass, not a printed value.

What was measured:
[1] = test system: Human immunodeficiency virus 1; experiment: Antiviral activity against HIV1 3B infected in human MT4 cells assessed as reduction in virus-induced cytopathogenic effect by MTT assay; conditions: Human immunodeficiency virus 1, 3B
[2] = test system: Human immunodeficiency virus 1; experiment: Antiviral activity against HIV1 RES056 infected in human MT4 cells assessed as reduction in virus-induced cytopathogenic effect by MTT assay; conditions: Human immunodeficiency virus 1, RES056, MT4
[3] = test system: Human immunodeficiency virus 2; experiment: Antiviral activity against wild type HIV2 ROD infected in human MT4 cells assessed as reduction in virus-induced cytopathogenic effect by MTT assay; conditions: Human immunodeficiency virus 2, ROD
[4] = Cytotoxicity against human MT4 cells assessed as reduction in cell viability by MTT assay
[5] = Selectivity ratio of CC50 for human MT4 cells to IC50 for HIV1 RES056 infected in MT4 cells
[6] = test system: Human immunodeficiency virus 1; experiment: Antiviral activity against HIV1 harboring L100I mutant infected in human MT4 cells assessed as reduction in virus-induced cytopathogenic effect by MTT assay; conditions: Human immunodeficiency virus 1, MT4
[7] = test system: Human immunodeficiency virus 1; experiment: Antiviral activity against HIV1 harboring K103N mutant infected in human MT4 cells assessed as reduction in virus-induced cytopathogenic effect by MTT assay; type: functional, organism-based; conditions: Human immunodeficiency virus 1, MT4
[8] = test system: Human immunodeficiency virus 1; experiment: Antiviral activity against wild type HIV1 harboring Y181C mutant infected in human MT4 cells assessed as reduction in virus-induced cytopathogenic effect by MTT assay; conditions: Human immunodeficiency virus 1, MT4
[9] = test system: Human immunodeficiency virus 1; experiment: Antiviral activity against wild type HIV1 harboring Y188L mutant infected in human MT4 cells assessed as reduction in virus-induced cytopathogenic effect by MTT assay; conditions: Human immunodeficiency virus 1, MT4
[10] = test system: Human immunodeficiency virus 1; conditions: Human immunodeficiency virus 1, MT4
[11] = test system: Human immunodeficiency virus 1; experiment: Antiviral activity against HIV1 harboring F227L/V106A mutant infected in human MT4 cells assessed as reduction in virus-induced cytopathogenic effect by MTT assay; type: functional, organism-based; conditions: Human immunodeficiency virus 1, MT4
[12] = biological target: Human immunodeficiency virus type 1 reverse transcriptase (Human immunodeficiency virus 1, UniProt Q72547); experiment: Inhibition of wild type HIV1 reverse transcriptase assessed as reduction in biotin-dUTP incorporation into […] incubated for 1 hrs by ELISA
in vitro [13] = conditions: human, MT4 cells
Description: Selectivity index, ratio of CC50 for human MT4 cells to EC50 for HIV1 harboring E138K mutant infected in human MT4 cells

[14] = Half life in human liver microsomes preincubated for 10 mins followed by phosphate buffer addition and incubated for 1 hr and subsequent addition of NADPH regenerating system and measured after 2 hrs by LC-MS/MS analysis
[15] = Stability in human liver microsomes assessed as compound remaining preincubated for 10 mins followed by phosphate buffer addition and incubated for 1 hr and subsequent addition of NADPH regenerating system and measured after 60 mins by LC-MS/MS analysis; type: ADME, Microsome; conditions: time 190 min, read-out: Stability
in vitro [16] = conditions: human, liver microsomes
[17] = Solubility in phosphate buffer at pH7; conditions: pH 7

SMILES | EC50 [1] [µM] | EC50 [2] [µM] | EC50 [3] [µM] | CC50 [4] [µM] | selectivity ratio [5] | EC50 [6] [µM] | EC50 [7] [µM] | EC50 [8] [µM] | EC50 [9] [µM] | EC50 [10] [µM] | EC50 [11] [µM] | IC50 [12] [µM] | selectivity ratio (in vitro [13]) | half-life at 2 h [14] [min] | remaining at 1 h [15] [%] | microsomal CLint at 2 h (in vitro [16]) [µL/min/mg] | solubility [17] [ng/mL]
Cc1cc(C#N)cc(C)c1Oc1nc(NC2CCN(Cc3ccc(C(N)=O)cc3)CC2)nc2c1CSCC2 | 0.00998 | 0.14 | > 236 | > 236 | > 1690 | 0.0223 | 0.0088 | 0.0214 | 0.0228 | 0.0329 | 0.853 | 0.143 | > 7180 |  |  |  | 
Cc1cc(/C=C/C#N)cc(C)c1Oc1nc(NC2CCN(Cc3cccc(C(N)=O)c3)CC2)nc2c1CSCC2 | 0.0504 | 0.443 | > 9.45 | 9.45 | 21 |  |  |  |  |  |  | 0.184 |  |  |  |  | 
Cc1cc(/C=C/C#N)cc(C)c1Oc1nc(NC2CCN(Cc3cc(=O)[nH]c(=O)[nH]3)CC2)nc2c1CSCC2 | 0.0308 | 0.881 | > 23.2 | 23.2 | 26 |  |  |  |  |  |  | 0.171 |  |  |  |  | 
Cc1cc(C#N)cc(C)c1Oc1nc(Nc2ccc(C#N)c(F)c2)nc2c1CSCC2 | 0.0135 | 0.262 | > 269 | 269 | 1030 |  |  |  |  |  |  | 0.053 |  |  |  |  | 
Cc1cc(/C=C/C#N)cc(C)c1Oc1nc(NC2CCN(Cc3ccc(S(N)(=O)=O)cc3)CC2)nc2ccsc12 |  |  |  |  |  |  |  |  |  |  |  |  |  | 1.6 | 0.2 | 847 | 
Cc1cc(C#N)cc(C)c1Oc1nc(NC2CCN(Cc3ccc(S(C)(=O)=O)cc3)CC2)nc2c1CSCC2 | 0.0111 | 0.125 | 5.64 | 58 | 465 | 0.0116 | 0.00665 | 0.0208 | 0.0184 | 0.0187 | 0.0171 | 0.134 | 3100 |  |  |  | 
Cc1cc(/C=C/C#N)cc(C)c1Oc1nc(Nc2ccc(C#N)cn2)nc2c1CSCC2 | 0.0258 | 0.608 | > 246 | 246 | 404 |  |  |  |  |  |  | 0.059 |  |  |  |  | 
Cc1cc(C#N)cc(C)c1Oc1nc(Nc2ccc(C#N)nc2)nc2c1CSCC2 | 0.0141 | 2.43 | > 288 | 288 | 119 |  |  |  |  |  |  | 0.043 |  |  |  |  | 
O=C1Nc2ccc(Cl)cc2[C@@](C#CC2CC2)(C(F)(F)F)O1 [EFAVIRENZ] |  |  |  | > 6.34 |  |  | 0.111 |  |  |  |  |  |  |  |  |  | 
Cc1cc(/C=C/C#N)cc(C)c1Oc1nc(NC2CCN(Cc3ccc(S(N)(=O)=O)cc3)CC2)nc2c1CSCC2 | 0.0107 | 0.0554 | 4.05 | 15.1 | 272 | 0.00813 | 0.00923 | 0.0223 | 0.0371 | 0.0407 | 0.0163 | 0.203 | 370 |  |  |  | 
Cc1cc(C#N)cc(C)c1Oc1nc(NC2CCN(Cc3cccc(C(N)=O)c3)CC2)nc2c1CSCC2 | 0.0154 | 1.65 | > 236 | > 236 | > 144 |  |  |  |  |  |  | 0.144 |  |  |  |  | 
Cc1cc(C#N)cc(C)c1Oc1nc(Nc2ccc(C#N)cn2)nc2c1CSCC2 | 0.0687 | 256 | > 302 | > 302 | > 1 |  |  |  |  |  |  | 0.053 |  |  |  |  | 
Cc1cc(/C=C/C#N)cc(C)c1Oc1nc(NC2CCN(Cc3ccc([N+](=O)[O-])cc3)CC2)nc2c1CSCC2 | 0.0262 | 0.16 | > 59.5 | 59.5 | 371 |  |  |  |  |  |  | 0.232 |  |  |  |  | 
Cc1cc(/C=C/C#N)cc(C)c1Oc1nc(Nc2ccc(C#N)cc2F)nc2c1CSCC2 | 0.031 | 5.81 | > 273 | > 273 | > 47 |  |  |  |  |  |  | 0.051 |  |  |  |  | 
Cc1cc(C#N)cc(C)c1Oc1nc(NC2CCN(Cc3cc(=O)[nH]c(=O)[nH]3)CC2)nc2c1CSCC2 | 0.0138 | 3.2 | > 25.6 | 25.6 | 8 |  |  |  |  |  |  | 0.089 |  |  |  |  | 
Cc1cc(C#N)cc(C)c1Oc1nc(NC2CCN(Cc3ccc(S(N)(=O)=O)cc3)CC2)nc2c1CSCC2 | 0.0137 | 0.12 | > 221 | > 221 | > 1850 | 0.00788 | 0.00717 | 0.00744 | 0.0126 | 0.0159 | 0.0151 | 0.151 | > 13900 |  |  |  | 
Cc1cc(/C=C/C#N)cc(C)c1Oc1nc(NC2CCN(Cc3ccc(C(N)=O)cc3)CC2)nc2c1CSCC2 | 0.0155 | 0.0373 | > 18.5 | 18.5 | 495 | 0.00865 | 0.0125 | 0.0311 | 0.0352 | 0.03 | 0.02 | 0.179 | 615 |  |  |  | 
Cc1cc(/C=C/C#N)cc(C)c1Oc1nc(Nc2ccc(C#N)nc2)nc2c1CSCC2 | 0.0121 | 0.0816 | > 109 | 109 | 1340 | 0.00908 | 0.00409 | 0.0133 | 0.0596 | 0.0128 | 0.148 | 0.032 | 8520 |  |  |  | 
Cc1cc(C#N)cc(C)c1Oc1nc(Nc2ccc(C#N)cc2)nc2c1CSCC2 | 0.00564 | 0.148 | > 202 | 202 | 1360 | 0.00931 | < 0.00387 | 0.0276 | 0.0243 | 0.00943 | 0.0271 | 0.041 | 21400 |  |  |  | 
Cc1cc(C#N)cc(C)c1Oc1nc(Nc2ccc(C#N)cc2F)nc2c1CSCC2 | 0.0455 | > 290 | > 290 | > 290 | > 1 |  |  |  |  |  |  | 0.065 |  |  |  |  | 
Cc1cc(C#N)cc(C)c1Oc1nc(Nc2ccc(C#N)cc2)nc(N)c1Br [ETRAVIRINE] | 0.00503 | 0.0425 | > 4.59 | > 4.59 |  | 0.00636 | 0.00314 |  |  | 0.00808 | 0.0143 |  |  |  |  |  | < 1000
Cc1ccnc2c1NC(=O)c1cccnc1N2C1CC1 [NEVIRAPINE] |  | > 15 | > 15 | > 15 |  | 2.22 | 12.3 | > 15 | > 15 | 0.182 | > 15 |  |  |  |  |  | 
Cc1cc(/C=C/C#N)cc(C)c1Oc1nc(Nc2ccc(C#N)c(F)c2)nc2c1CSCC2 | 0.0158 | 0.133 | > 54.4 | 54.4 | 408 | 0.00841 | 0.0158 | 0.0327 | 0.0543 | 0.0412 | 0.0743 | 0.008 | 1320 |  |  |  | 
Cc1cc(/C=C/C#N)cc(C)c1Nc1ccnc(Nc2ccc(C#N)cc2)n1 [RILPIVIRINE] |  |  |  |  |  |  |  |  |  |  |  |  |  |  |  |  | 2 (≈ 5.46 nM)
Cc1cc(/C=C/C#N)cc(C)c1Oc1nc(NC2CCN(Cc3ccc(S(C)(=O)=O)cc3)CC2)nc2c1CSCC2 | 0.0126 | 0.116 | 4.81 | 21.5 | 186 | 0.00924 | 0.00848 | 0.0341 | 0.0602 | 0.0348 | 0.0149 |  | 619 |  |  |  | 
Cc1cc(C#N)cc(C)c1Oc1nc(NC2CCN(Cc3ccc([N+](=O)[O-])cc3)CC2)nc2c1CSCC2 | 0.0115 | 2.85 | > 236 | > 236 | > 83 |  |  |  |  |  |  | 0.23 |  |  |  |  | 
